Measurements from US8383581B2, “Short-chain peptides as parathyroid hormone (PTH) receptor agonist” (Cadila Healthcare Limited, priority 2009, dated 2013).
Where a SMILES comes first, the peptide text is derived from it. [ ]: non-standard residue; d: D form. ξ: configuration not given here. ξαMeBip(2'-Et,4'-OMe) = CCc1cc(OC)ccc1-c1ccc(CC(C)(N)C(=O)O)cc1; ξBip(2'-Et-4'-OMe) = CCc1cc(OC)ccc1-c1ccc(CC(N)C(=O)O)cc1; ξαMePhe(2,6-F2) = CC(N)(Cc1c(F)cccc1F)C(=O)O; ξαMePhe(2-F) = CC(N)(Cc1ccccc1F)C(=O)O; hArg = N=C(N)NCCCC[C@H](N)C(=O)O; ξhhPhe = NC(CCCc1ccccc1)C(=O)O; ξαMeNle = CCCCC(C)(N)C(=O)O; Nle = CCCC[C@H](N)C(=O)O; Orn = NCCC[C@H](N)C(=O)O; Ac5c = NC1(C(=O)O)CCCC1; Ac3c = NC1(C(=O)O)CC1; Aib = CC(C)(N)C(=O)O

System: ovariectomised (OVX) rats
Experiment: In vivo anti-osteoporosis activity testing in OVX rat model (serum calcium, phosphate, bone parameters)
Design: species or system Female Wistar Rats
Conditions: po
Source text: c) In Vivo Anti-Osteoporosis Activity Testing in OVX Rat Model: The ovariectomised (OVX) rats were used to study anti-osteoporosis activity of test compounds (short-chain peptides) in vivo. The OVX rats develop osteopenia due to ovarian hormone deficiency. Osteopenia can be detected as early as 14 days post OVX, increase for the next 100 days and then stabilised (Wronski T. J., et al., Calcif. Tissue Int., 43(3), 1988, 179-183). Detailed Study Protocol to Evaluate the Effects of Anabolic Therapy on Bone Markers and Histomorphometry in OVX Animals: 10 to 11 weeks old Female Wistar Rats (150-200 g) were used. The animals were kept in individually ventilated cages in a room with controlled temperature (23°±3° C.), lighting (12:12 h light-dark cycle) and relative humidity (55±10%). Animals had free access to standard rat chow and water. Protocol for use of animals for conducting this study has been reviewed and approved by Institutional Animal Ethics Committee (IAEC). The animals were marked with picric acid for identification and acclimatized to experimental room conditions for 2 days prior to initiation of the study. For the induction of osteoporosis, rats were bilaterally ovariectomised under anesthesia. For Ovariectomy, Incision was made on dorsa-lateral side near lumbar region of animal. After that, ovary was excised and the veins were tied with ligature before removing ovary to prevent blood loss. Then incision was sutured back with ligature. After Bilateral ovariectomy, animals were allowed to rest for 4 weeks. They were then divided into different groups (n=9) based on their body weight. The groups consisted of a no treatment control, PTH as standard and one or two groups of test compounds (short-chain peptides). The treatment was given for the duration of 6 weeks. At the last day of treatment animals were kept overnight in metabolic cages under fasting for the collection of Urine. Next day, blood was collected after 24 hours of last dosing and animals were sacrificed. Changes in biochemical parameters and bone turnover parameters (Increase in serum Calcium and decrease in Phosphate levels, Acid Phosphatase and TRAP) were evaluated in the urine and serum. After sacrificing, intact femur and tibial bones are removed and cleaned from adherent tissues, muscles and tendons; weighed and collected in formal saline (10% formaldehyde solution). Lumbar vertebra (L5) was excised, carefully cleaned and collected in formal saline. Femur, tibia and Lumbar vertebra-5 (L5) were later processed for histomorphometric evaluation (Zhang L., et al., Tohoku J Exp Med., 1998, 186(2), 131-41; Tanizawa T., et al., Toxicol Lett., 1998, 102, 399-403).

CCCC[C@H](NC(=O)[C@H](CC(C)C)NC(=O)[C@H](CCC(N)=O)NC(=O)[C@@H](NC(=O)[C@H](CCC(=O)O)NC(=O)C(C)(C)NC(=O)[C@@H](NC(=O)C1(N)CC1)C(C)C)[C@@H](C)CC)C(=O)N[C@@H](Cc1c[nH]cn1)C(=O)N[C@@H](CCC(N)=O)C(=O)N[C@@H](CCCCNC(=N)N)C(=O)N[C@@H](C)C(=O)N[C@@H](CCCCN)C(=O)NC(Cc1ccc(-c2ccc(OC)cc2CC)cc1)C(N)=O (stereo partly drawn) [Seq. ID. 649] (H-[Ac3c]V[Aib]EIQL[Nle]HQ[hArg]AK[ξBip(2'-Et-4'-OMe)]-NH2)
% decrease in serum PO4 Levels (mg/dl) vs control (2 mg/kg): 82% | % increase in serum Ca^2+ Levels (mg/dl) vs control (2 mg/kg): 86%

CCCC[C@H](NC(=O)C(C)(Cc1c(F)cccc1F)NC(=O)[C@H](CCC(N)=O)NC(=O)[C@@H](NC(=O)[C@H](CCC(=O)O)NC(=O)C(C)(C)NC(=O)[C@@H](NC(=O)C1(N)CCCC1)C(C)C)[C@@H](C)CC)C(=O)N[C@@H](Cc1c[nH]cn1)C(=O)N[C@@H](CCC(N)=O)C(=O)NC(C)(Cc1c(F)cccc1F)C(=O)N[C@@H](C)C(=O)NC(C)(Cc1c(F)cccc1F)C(=O)NC(C)(Cc1ccccc1F)C(N)=O (stereo partly drawn) [Seq. ID. 511] (H-[Ac5c]V[Aib]EIQ[ξαMePhe(2,6-F2)][Nle]HQ[ξαMePhe(2,6-F2)]A[ξαMePhe(2,6-F2)][ξαMePhe(2-F)]-NH2)
% decrease in serum PO4 Levels (mg/dl) vs control (1 mg/kg): 88% | % increase in serum Ca^2+ Levels (mg/dl) vs control (1 mg/kg): 84%

CCCC[C@H](NC(=O)[C@H](CC(C)C)NC(=O)[C@H](CCC(N)=O)NC(=O)[C@@H](NC(=O)[C@H](CCC(=O)O)NC(=O)C(C)(C)NC(=O)[C@@H](NC(=O)C(C)(C)N)C(C)C)[C@@H](C)CC)C(=O)N[C@@H](Cc1c[nH]cn1)C(=O)N[C@@H](CCC(N)=O)C(=O)N[C@@H](CCCCNC(=N)N)C(=O)NC(C)(C)C(=O)NC(C)(C)C(=O)NC(Cc1ccc(-c2ccc(OC)cc2CC)cc1)C(=O)NC(CCCc1ccccc1)C(N)=O (stereo partly drawn) [Seq. ID. 742] (H-[Aib]V[Aib]EIQL[Nle]HQ[hArg][Aib][Aib][ξBip(2'-Et-4'-OMe)][ξhhPhe]-NH2)
% decrease in serum PO4 Levels (mg/dl) vs control (0.1 mg/kg): 92% | % increase in serum Ca^2+ Levels (mg/dl) vs control (0.1 mg/kg): 89%

CCCCC(C)(NC(=O)[C@H](CC(C)C)NC(=O)[C@H](CCC(N)=O)NC(=O)[C@@H](NC(=O)[C@H](CCC(=O)O)NC(=O)C(C)(C)NC(=O)[C@@H](NC(=O)C(C)(C)N)C(C)C)[C@@H](C)CC)C(=O)N[C@@H](Cc1c[nH]cn1)C(=O)N[C@@H](CCC(N)=O)C(=O)N[C@@H](CCCCNC(=N)N)C(=O)N[C@@H](C)C(=O)N[C@@H](CCCCNC(=N)N)C(=O)NC(C)(Cc1ccc(-c2ccc(OC)cc2CC)cc1)C(=O)NC(CCCc1ccccc1)C(N)=O (stereo partly drawn) [Seq. ID. 911] (H-[Aib]V[Aib]EIQL[ξαMeNle]HQ[hArg]A[hArg][ξαMeBip(2'-Et,4'-OMe)][ξhhPhe]-NH2)
% decrease in serum PO4 Levels (mg/dl) vs control (10 mg/kg): 97% | % increase in serum Ca^2+ Levels (mg/dl) vs control (10 mg/kg): 121%

CCCC[C@H](NC(=O)C(C)(Cc1c(F)cccc1F)NC(=O)[C@H](CCC(N)=O)NC(=O)[C@@H](NC(=O)[C@H](CCC(=O)O)NC(=O)C(C)(C)NC(=O)[C@@H](NC(=O)C1(N)CCCC1)C(C)C)[C@@H](C)CC)C(=O)N[C@@H](Cc1c[nH]cn1)C(=O)N[C@@H](CCC(N)=O)C(=O)N[C@@H](CCCN)C(=O)N[C@@H](C)C(=O)NC(C)(Cc1c(F)cccc1F)C(=O)NC(Cc1ccc(-c2ccc(OC)cc2CC)cc1)C(=O)NC(CCCc1ccccc1)C(N)=O (stereo partly drawn) [Seq. ID. 833] (H-[Ac5c]V[Aib]EIQ[ξαMePhe(2,6-F2)][Nle]HQ[Orn]A[ξαMePhe(2,6-F2)][ξBip(2'-Et-4'-OMe)][ξhhPhe]-NH2)
% decrease in serum PO4 Levels (mg/dl) vs control (0.05 mg/kg): 78% | % increase in serum Ca^2+ Levels (mg/dl) vs control (0.05 mg/kg): 86%

CCc1cc(OC)ccc1-c1ccc(CC(C)(NC(=O)[C@H](CCCCNC(=N)N)NC(=O)[C@H](C)NC(=O)[C@H](CCCCNC(=N)N)NC(=O)[C@H](CCC(N)=O)NC(=O)[C@H](Cc2c[nH]cn2)NC(=O)[C@H](CCSC)NC(=O)[C@H](CC(C)C)NC(=O)[C@H](CCC(N)=O)NC(=O)[C@@H](NC(=O)[C@H](CCC(=O)O)NC(=O)C(C)(C)NC(=O)[C@@H](NC(=O)C(C)(C)NC(=O)[C@@H](N)C(C)C)C(C)C)[C@@H](C)CC)C(=O)NC(CCCc2ccccc2)C(N)=O)cc1 (stereo partly drawn) [Seq. ID. 902] (H-V[Aib]V[Aib]EIQLMHQ[hArg]A[hArg][ξαMeBip(2'-Et,4'-OMe)][ξhhPhe]-NH2)
% decrease in serum PO4 Levels (mg/dl) vs control (0.8 mg/kg): 98% | % increase in serum Ca^2+ Levels (mg/dl) vs control (0.8 mg/kg): 110%
